Source: ChEMBL document CHEMBL1124675, “Synthesis and biological evaluation of a monocyclic, fully functional analogue of compactin” (J Med Chem, 1989)
pIC50: −log10 of the molar value.

Target: T1, 3-hydroxy-3-methylglutaryl-coenzyme A reductase (Rattus norvegicus, UniProt P51639)
T1 sequence (P51639 whole entry): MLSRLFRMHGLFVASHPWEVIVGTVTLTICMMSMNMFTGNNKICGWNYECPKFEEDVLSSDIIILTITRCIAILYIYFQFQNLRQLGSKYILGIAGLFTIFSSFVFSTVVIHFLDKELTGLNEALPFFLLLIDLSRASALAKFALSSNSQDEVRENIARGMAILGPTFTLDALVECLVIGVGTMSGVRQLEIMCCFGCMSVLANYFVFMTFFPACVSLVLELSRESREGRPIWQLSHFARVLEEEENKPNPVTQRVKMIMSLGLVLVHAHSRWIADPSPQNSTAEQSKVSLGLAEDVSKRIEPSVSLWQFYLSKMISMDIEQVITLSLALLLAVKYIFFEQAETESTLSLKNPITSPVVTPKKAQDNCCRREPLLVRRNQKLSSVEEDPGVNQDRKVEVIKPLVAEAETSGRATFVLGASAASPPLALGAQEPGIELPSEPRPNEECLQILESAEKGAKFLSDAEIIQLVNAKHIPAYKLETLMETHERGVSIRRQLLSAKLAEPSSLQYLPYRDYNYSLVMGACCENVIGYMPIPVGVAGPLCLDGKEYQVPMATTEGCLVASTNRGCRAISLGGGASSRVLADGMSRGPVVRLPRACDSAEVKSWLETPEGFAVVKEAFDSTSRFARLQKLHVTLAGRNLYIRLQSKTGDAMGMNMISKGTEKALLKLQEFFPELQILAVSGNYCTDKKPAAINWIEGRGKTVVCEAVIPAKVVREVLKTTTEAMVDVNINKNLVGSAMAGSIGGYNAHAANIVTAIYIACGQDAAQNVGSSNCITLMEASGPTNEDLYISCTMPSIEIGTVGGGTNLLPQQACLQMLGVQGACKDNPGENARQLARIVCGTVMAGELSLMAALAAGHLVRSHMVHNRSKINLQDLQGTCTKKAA
Test: Ability of compound to inhibit the activity of 3-hydroxy-3-methylglutarylcoenzyme A(HMGR) reductase in rat liver microsomes
Parameters: species or system Microsome

pIC50	SMILES
7.89	CC[C@H](C)C(=O)O[C@H]1CCC=C2C=C[C@H](C)[C@H](CCC(O)C[C@@H](O)CC(=O)O)C21 (stereo not given in full)
7.49	CC[C@H](C)C(=O)O[C@H]1CCC=C2C=C[C@H](C)[C@H](CCC(=O)C[C@@H](O)CC(=O)O)C21 (stereo not given in full)
8.80	CC[C@H](C)C(=O)O[C@H]1C[C@@H](C)C[C@@H]2C=C[C@H](C)[C@H](CCC(O)C[C@@H](O)CC(=O)O)C12 (stereo not given in full)
3.22	O=C(O)CC(O)CC(O)CCc1ccccc1 (stereo not given)
2.89	O=C(O)C[C@H](O)CC(=O)CCc1ccccc1
